Measurements: US20260231945A1, “NEMATICIDAL COMPOUNDS, THEIR COMPOSITION AND USE THEREOF” (priority 2023, published 2026)

What was measured:
[1] = test system: Root-knot nematodes Meloidogyne spp. juveniles (J2); assay: whole plant or invertebrate; type: in vivo; conditions: 70-100 J2 juveniles, 22±2° C., 70±5% RH, dead/inactive counted at 24, 48, 72 and 96 hours (time of rating not stated); for mortality at 500 ppm: Meloidogyne
Description: The compound to be tested (4 mg) was dissolved in 40 μl of DMSO to make 100,000 PPM concentration stock solution. […] The nematode suspension (250 μl) having 70-100 juveniles (J2) of Root-knot nematodes Meloidogyne spp. pipetted out to each cell of 24 well bioassay plate. Sterile water (1 ml) was pipetted out in fresh 2.5 ml Eppendorf micro-centrifuge tubes. The desired concentration (500 ppm) of the compound was prepared by adding stock solution in 2.5 ml Eppendorf micro-centrifuge tubes. For each treatment 4 replications were maintained. The bioassay plates were incubated at 22±2° C. and 70±5% RH in humidity chambers.

[2] = Stability studies: storage at room temperature and under accelerated storage condition (ATS), purity estimated by HPLC; type: physicochemical; conditions: properly packed material; for purity estimated by HPLC, Day 14 Condition 54° C. ± 2° C. / purity estimated by HPLC, Day Zero Condition 54° C. ± 2° C.: 54° C. ± 2° C. (accelerated storage)
Excerpt: The properly packed material was subjected to the conditions mentioned in the table below (Table 5).

Row | purity estimated by HPLC, Day 14 Condition 25° C. ± 2° C. [2] | purity estimated by HPLC, Day 14 Condition 54° C. ± 2° C. [2] | purity estimated by HPLC, Day Zero Condition 25° C. ± 2° C. [2] | purity estimated by HPLC, Day Zero Condition 54° C. ± 2° C. [2] | Structure (SMILES) | mortality at 500 ppm [1] | % Mortality Rating ([1]; 500 ppm)
1 | 99.50 | 98.90 | 99.55 | 99.43 | N#Cc1ccc(/C=C/C=N/[C@@H](CCCNC(=N)N)C(=O)O)cc1 [Example 20, (E)-N^2-[(2E)-3-(4-cyanophenyl)prop-2-en-1-ylidene]-L-arginine] | 70 to 100% | 
2 | 98.85 | 98.90 | 98.90 | 98.75 | N=C(N)NCCC[C@H](/N=C/C=C/c1ccc2ccccc2c1)C(=O)O [Example 24, (E)-N^2-[(2E)-3-(naphthalen-2-yl)prop-2-en-1-ylidene]-L-arginine] | 50 to 69% | 

Row | Structure (SMILES) | purity estimated by HPLC, Day 14 Condition 25° C. ± 2° C. [2] | purity estimated by HPLC, Day 14 Condition 54° C. ± 2° C. [2] | purity estimated by HPLC, Day Zero Condition 25° C. ± 2° C. [2] | purity estimated by HPLC, Day Zero Condition 54° C. ± 2° C. [2] | mortality at 500 ppm [1] | % Mortality Rating ([1]; 500 ppm)
3 | N#Cc1ccc(C=CC=NC(CCCNC(=N)N)C(=O)O)c(C(F)(F)F)c1 (stereo not drawn) [Example 39] | 99.55 | 99.60 | 99.40 | 99.40 |  | A (70-100)
